Read-outs that look alike come from different tables or passages of the source.
Experiments:
Proteus mirabilis OM-1 [1] = test: Arrestment action to the calculus formation in the urine; type: cell-based; settings: OM1, human urine with Proteus mirabilis OM-1, 8 hours, read-out: Arrest ratio to calculus formation (%), 8 hours; for inhibition at 200 µM: 2×10^-4 M; for inhibition at 1000 µM: 10^-3 M
[2] = biological target: T1, Urease collected and purified from sword beans (Canavalia gladiata) (Canavalia gladiata, UniProt A0AAN9R4W0); test: Determination of the urease inhibitory action; type: biochemical; settings: read-out: 50% inhibitory concentration (M) of urease <I50>
T1 construct: single-chain plant urease, homohexamer by analogy with jack bean urease
Procedure: (i) Determination of the urease inhibitory action
Urease was collected and purified from sword beans (Canavalia gladiata) and mol concentrations of the examination compounds for inhibiting 50% of the activity of the urease were measured by the method of Kobashi et al [Refer to Biochim. Biophys. acta 227, 429-441 (1971)].

Proteus mirabilis OM-1 [3] = test: Arrestment action to the calculus formation in the urine; type: cell-based; settings: OM1, human urine with Proteus mirabilis OM-1, 24 hours, read-out: Arrest ratio to calculus formation (%), 24 hours; for inhibition at 200 µM: 2×10^-4 M; for inhibition at 1000 µM: 10^-3 M
Procedure: (§1) Solutions to be examined were prepared by collecting each 18 ml of fresh urine from a normal human, and adding the respective examination compounds to each of the urine to make their concentration of 10^-3 M in one group, and of 2×10^-4 in the other group. On the other hand, same solutions containing no examination compounds were prepared as blanks.
Proteus mirabilis OM-1, a urease-producing bacterium, was inoculated in said solutions, so that the number of the bacteria may amount to 10^6 cell/ml, and cultured at 37° C. After […] and 24 hours of the culture time, pH values of the solutions and amounts by weight of the formed and deposited calculus were measured. The arrestment ratio of calculus formation was calculated from said values.

[4] = Determination of the transfer rate into the urine and calculation of the index; type: in vivo, male rats of SD strain; settings: rat, male SD rats, 100 mg/Kg oral, measured as urease inhibitory action in excreted urine; for dose excreted at 6 h: 0-6 hours; for dose excreted at 24 h: 6-24 hours
Procedure: (ii) Determination of the transfer rate into the urine
Transfer rates into the urine of the examination compounds were determined according to the method of Kobashi et al [Refer to Biochemistry (Japan) vol. 44, No. 5, pp. 187-204 (1972) and Yakugaku Zasshi vol. 12, pp. 1564-1572 (1973)] by using the male rats of SD strain having the body weight of about 280 g, administering orally each 100 mg/Kg of the compounds, and measuring the urease inhibitory action in the excreted urine within a specified period of time.
(iii) Calculation of the index
The index was calculated from the resulting values of the above examinations (i) and (ii) according to the following equation: [formula] wherein n is chosen appropriately depending on the value of I50.
The value of the index is referred to as a standard of the urease inhibitory power of the administered examination compound in the urine.
It is seen that the larger the value of the index is, the more effectively the examination compounds transfer into the urine with a form having the urease inhibitory action. Results of the determination

[5] = Acute toxicity: observation of the general conditions; type: in vivo; settings: for Number of death examples, Female / Number of death examples, Male: rat, in vivo
Excerpt: (§2) Eight week-old rats of SD strain (body weight: about 230 g for male and about 160 g for female) were used as the subject animals. The examination compounds were forcedly and orally administered in the following dosages, wherein 14 rats (7 male rats and 7 female rats, respectively) were used.

[6] = Acute toxicity (LD50), oral; settings: rat, in vivo, po
Excerpt: The examination was achieved by orally administering the examination compounds into male rats of SD strain weighing about 230 g, respectively.

[7] = Acute toxicity: remarks on the dissection; type: in vivo, rats of SD strain; settings: for Remarks on the dissection, death examples: macroscopic observation at the time of death; for Remarks on the dissection, survivor example: rat, in vivo
Procedure: as §2
The dissection was performed, for the death examples, at the time of death and, for the survivor example, after killing by discharging the blood when the observation of the general conditions was finished. The organs in the thoracic cavity and the abdominal cavity were closely observed with a macroscopic manner.

[8] = Examination of urine (Labstix test paper, amount, pH); type: in vivo, male SD strain rats; parameters: key to Protein in urine, hours 0-6 / Protein in urine, hours 6-24 / Glucose in urine, hours 0-6 / Glucose in urine, hours 6-24 / Ketone substances in urine, hours 0-6 / Ketone substances in urine, hours 6-24 / Occult blood in urine, hours 0-6 / Occult blood in urine, hours 6-24: (-); (±); (+); (++); (+++); settings: 100 mg/Kg oral, male SD rats; for Ketone substances in urine, hours 0-6 / Occult blood in urine, hours 0-6 / Protein in urine, hours 0-6 / Glucose in urine, hours 6-24 / Ketone substances in urine, hours 6-24 / Occult blood in urine, hours 6-24 / Protein in urine, hours 6-24 / Glucose in urine, hours 0-6: Labstix; for Ketone substances in urine, hours 0-6 / Occult blood in urine, hours 0-6 / Protein in urine, hours 0-6: 0-6 hours; for Glucose in urine, hours 6-24 / Ketone substances in urine, hours 6-24 / Occult blood in urine, hours 6-24 / Protein in urine, hours 6-24: 6-24 hours; for Glucose in urine, hours 0-6: first collection period; for Amount and pH value of the urine: compared with the group given no examination compound
Procedure: To 5 male SD strain rats having the body weight of about 280 g in the respective groups, the examination compounds were forcedly and orally administered in a ratio of 100 mg/Kg in each time.
Natural urinations were respectively recovered 6 hours and 6-24 hours from the administration. As for control group wherein no examination compound is administered, natural urination was similarly recovered. Amount and pH value of the recovered urine were measured. Further, qualitative reaction concerning the respective items of protein, glucose, ketone substances, and occult blood in the urine was carried out by using Labstix text paper (manufactured and sold by Ames Company). Judgement was ranked as five levels, that is, (-), (±), (+), (++) and (+++).

Proteus mirabilis OM-1 [9] = test: Arrestment action to alkalization of the urine; type: cell-based; settings: normal human urine inoculated with Proteus mirabilis OM-1, 37° C.
Procedure: as §1
Proteus mirabilis OM-1, a urease-producing bacterium, was inoculated in said solutions, so that the number of the bacteria may amount to 10^6 cell/ml, and cultured at 37° C. […] The arrestment ratio of calculus formation was calculated from said values.

[10] = single forced oral dose, SD rats, 7 male and 7 female per dose
[11] = single forced oral dose, SD rats, all administration groups

T1 sequence (A0AAN9R4W0 entry or part of it): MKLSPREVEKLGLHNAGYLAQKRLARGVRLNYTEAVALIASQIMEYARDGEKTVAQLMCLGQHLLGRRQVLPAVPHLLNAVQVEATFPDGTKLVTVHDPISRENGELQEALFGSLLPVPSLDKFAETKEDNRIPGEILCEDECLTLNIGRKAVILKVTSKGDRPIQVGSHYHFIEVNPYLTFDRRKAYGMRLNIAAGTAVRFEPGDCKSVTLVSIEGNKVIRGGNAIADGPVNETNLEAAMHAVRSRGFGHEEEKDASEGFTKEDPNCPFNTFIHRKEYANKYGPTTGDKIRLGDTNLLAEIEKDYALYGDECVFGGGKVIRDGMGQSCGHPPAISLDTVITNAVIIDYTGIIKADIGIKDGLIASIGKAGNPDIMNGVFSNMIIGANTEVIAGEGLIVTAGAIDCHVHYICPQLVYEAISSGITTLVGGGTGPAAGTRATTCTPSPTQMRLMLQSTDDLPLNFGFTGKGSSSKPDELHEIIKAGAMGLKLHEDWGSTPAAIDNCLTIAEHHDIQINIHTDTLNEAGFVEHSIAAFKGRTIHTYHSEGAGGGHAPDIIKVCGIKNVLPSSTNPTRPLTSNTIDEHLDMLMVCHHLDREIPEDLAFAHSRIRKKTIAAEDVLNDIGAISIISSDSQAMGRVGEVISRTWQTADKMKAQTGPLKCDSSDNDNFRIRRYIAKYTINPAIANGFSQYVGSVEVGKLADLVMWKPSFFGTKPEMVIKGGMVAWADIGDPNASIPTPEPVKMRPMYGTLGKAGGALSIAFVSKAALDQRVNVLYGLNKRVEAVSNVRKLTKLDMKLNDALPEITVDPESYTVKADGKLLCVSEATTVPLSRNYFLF

SMILES	inhibition at 200 µM (Proteus mirabilis OM-1 [1])	inhibition at 1000 µM (Proteus mirabilis OM-1 [1])	IC50 [2]	inhibition at 200 µM (Proteus mirabilis OM-1 [3])	inhibition at 1000 µM (Proteus mirabilis OM-1 [3])	dose excreted at 6 h [4]	dose excreted at 24 h [4]	Number of death examples, Female [5]	Number of death examples, Male [5]	Symptom [5, 10]	Baited amount [5, 11]	LD50 [6]	Remarks on the dissection, death examples [7]	Remarks on the dissection, survivor example [7]	Ketone substances in urine, hours 0-6 [8]	Occult blood in urine, hours 0-6 [8]	Protein in urine, hours 0-6 [8]	Glucose in urine, hours 6-24 [8]	Ketone substances in urine, hours 6-24 [8]	Occult blood in urine, hours 6-24 [8]	also measured
COc1cccc(C(=O)NCC(=O)NO)c1 [Compound B, 2-(meta-methoxy-benzamide)-acetohydroxamic acid]	87.5 ± 1.6%	82 ± 9.2%	1.2e-06 M	26.2 ± 5.7%	79.1 ± 8.2%	12.3%	1.5%	3/7	2/7	Hair raising	No change	> 5000 mg/kg	Erosion was observed	No abnormality	-	-	+	-	-	-	Protein in urine, hours 6-24 [8]: ±; Glucose in urine, hours 0-6 [8]: -; Amount and pH value of the urine [8]: there was not found the difference; pH value, time 0 hour (Proteus mirabilis OM-1 [9]; 2×10^-4 M): 6.45±0.01; pH value, time 8 hours (Proteus mirabilis OM-1 [9]; 2×10^-4 M): 6.84±0.02; pH value, time 24 hours (Proteus mirabilis OM-1 [9]; 2×10^-4 M): 8.71±0.01; pH value, time 0 hour (Proteus mirabilis OM-1 [9]; 10^-3 M): 6.47±0.01; pH value, time 8 hours (Proteus mirabilis OM-1 [9]; 10^-3 M): 5.41±0.01; pH value, time 24 hours (Proteus mirabilis OM-1 [9]; 10^-3 M): 6.52±0.003
COc1ccc(C(=O)NCC(=O)NO)cc1 [Compound A, 2-(para-methoxy-benzamide)-acetohydroxamic acid]	99 ± 1%	96.2 ± 0.4%	1.7e-06 M	32 ± 3.4%	76.6 ± 6%	12%	0.83%	0/7	1/7	No change	No change	> 5000 mg/kg	Erosion was observed	No abnormality	-	-	+	-	-	-	Behaviour [5, 10]: No change; Protein in urine, hours 6-24 [8]: ±; Glucose in urine, hours 0-6 [8]: -; Amount and pH value of the urine [8]: there was not found the difference; pH value, time 8 hours (Proteus mirabilis OM-1 [9]; 2×10^-4 M): 6.56±0.02; pH value, time 24 hours (Proteus mirabilis OM-1 [9]; 2×10^-4 M): 8.38±0.02; pH value, time 0 hour (Proteus mirabilis OM-1 [9]; 10^-3 M): 6.40±0.00; pH value, time 8 hours (Proteus mirabilis OM-1 [9]; 10^-3 M): 5.40±0.003; pH value, time 24 hours (Proteus mirabilis OM-1 [9]; 10^-3 M): 5.58±0.05
O=C(CNC(=O)c1ccc(Cl)cc1)NO [Control compound I, 2-(para-chloro-benzamide)-acetohydroxamic acid, reference compound]	77.2 ± 9.1%	69.7 ± 9%	1e-06 M	30.6 ± 13.9%	82.5 ± 8.5%	1%	0.5%	0/7	3/7	arantic change	Decrease	> 5000 mg/kg	Petechiae and ulcer	Blacking change and hypertrophy of spleen	++	-	++	+++	+++	-	Body Weight decrease on average [5, 11]: 10%; Protein in urine, hours 6-24 [8]: +++; Glucose in urine, hours 0-6 [8]: +++; Amount and pH value of the urine [8]: there was not found the difference; pH value, time 0 hour (Proteus mirabilis OM-1 [9]; 2×10^-4 M): 6.79±0.01; pH value, time 8 hours (Proteus mirabilis OM-1 [9]; 2×10^-4 M): 7.30±0.00; pH value, time 24 hours (Proteus mirabilis OM-1 [9]; 2×10^-4 M): 8.51±0.01; pH value, time 0 hour (Proteus mirabilis OM-1 [9]; 10^-3 M): 6.75±0.003; pH value, time 8 hours (Proteus mirabilis OM-1 [9]; 10^-3 M): 6.64±0.02; pH value, time 24 hours (Proteus mirabilis OM-1 [9]; 10^-3 M): 7.03±0.01

From patent publication US4157396A, “Hydroxamic acid derivatives and medicaments for treatment of urolithiasis and pyelonephrosis comprising such derivatives” (Eisai Co., Ltd., priority 1976, dated 1979)
